Laboratory results taken from US20210285004A1, “Bidirectional Constitutive Promoter and Uses, and Transfection Methods for B. Microti” (MJKS Research LLC, priority 2020, published 2021).

Key:
[1] = system: B. microti; assay: Promoter strength comparison by reporter gene analysis (RLU, luminometer); assay type: cell-based, Babesia microti; conditions: reporter gene construct, FIG. 5
Experimental: In FIG. 5, the improved strength of the Babesia promoter (here: B. microti or “BM”) compared to a strong constitutive promoter (here: PBANKA DHFR of SEQ ID NO:2) is shown.
The strength of a Babesia-based promoter (for example, without limitation, the BM-CTQ41297 promoter of SEQ ID NO:1) and that of a strong constitutive promoter (here: PBANKA DHFR, SEQ ID NO:2) are determined and compared, representative results are shown in FIG. 5. A promoter (SEQ ID NO:1, from B. microti or “BM”) is compared to PBANKA-DHFR (known to be a strong constitutive promoter), a blank/negative control, and, as a further negative control, human EF1b promoter. The promoter constructs are prepared as described in examples 1 and 4, respectively. Relative Light Units (RLU) are measured by luminometer. […] Similarly the constitutive promoter human EF1b is outperformed by a Babesia-based promoter, including e.g. by the B. microti promoter (as shown in FIG. 5). As determined by reporter gene analysis, the Babesia promoter is at least about 5 to 6 times stronger compared to PBANKA-DHFR (a promoter derived from a rodent malaria parasite Plasmodium berghei with strong constitutive activity commonly used for the expression of reporter genes in various apicomplexan parasites), see results shown in FIG. 5.

[2] = system: B. microti; assay: Transient transfection of B. microti with promoter constructs, reporter expression by fluorescence microscopy; assay type: cell-based, Babesia microti; conditions: two days after transfection, infected RBC from C57BL/6J mice
Experimental: A transfection of parasites with a parasite promoter (here: B. microti & SEQ ID NO:1) is performed as follows. A schematic representation of the genomic location of the B. microti promoter of SEQ ID NO:1 (BM-CTQ41297 promoter) is shown in FIG. 1a. As shown in the figure, the promoter is flanked by the two different genes. The episomal constructs may be based on a standard cloning vector such as Bluescript (pBSK (+)) and modified for expression accordingly; the constructs used are shown schematically in FIG. 1b. As a negative control (B), B. microti parasites transfected with a blank vector without reporter gene insert (but with BM-CTQ41297 promoter and 3′UTR, compare SEQ ID NO: 35). […] Electroporation for both genes is performed as follows. […]
After electroporation, the parasites are immediately injected into C57BL/6J mice and after two days of transfection analyzed by fluorescence microscopy as follows: a drop of blood is collected in a 1.5 ml tube containing heparin from the tail of mice infected with transfected parasites. […] The transfected parasites are analyzed by fluorescence microscopy to check if transfected parasites express the reporter gene (here: GFP) using a fluorescence microscope, e.g. Axio Imager M2®, Zeiss®, Dublin, Calif.). The transfected parasites are reporter gene (e.g. here: GFP) positive as confirmed by fluorescence microscopy and shown in FIG. 1c, see C. […]

In the case of “PBANKA-DHFR: Strong constitutive DHFR promoter from Plasmodium berghei, SEQ ID NO:2, 2262 bp [reference compound]”, the “RLU (Relative Light Unit) values” [1] is reported as “about 60 RLU” and the “reporter gene expression (GFP/mCherry fluorescence)” value [2] is reported as “expression of GFP”.
